In brackets after ≈: the same amount, converted by molar mass.
Tests used:
[1] = In vivo mouse pharmacokinetics (IV, CD-1 mice)
Procedure: Mouse PK (FIG. 2): The experiment was performed using the compounds synthesized in lab and purified by preparative HPLC (>91%). All the compounds were dissolved in D5W (5% dextrose in water) at for IV injection. Female CD-1 mice were (3 per group; body weight approx. 30 g each) injected with the compounds (as per planned dosage) and the blood samples were collected at different time points and the compound content was analysed using the following procedure. • Instrument: Triple Quad 6500+ • Matrix […] CD-1 mouse plasma (EDTA-K2) • Analyte(s): Compound 1 • Internal standard(s): 100 ng/mL Labetalol & 100 ng/mL Tolbutamide in ACN • MS conditions ESI: positive • SRM detection • Compound 1: [M+H]+m/z 979.8>798.4 • Labelatol (IS): [M+H]+m/z 329.2>162.1 • UPLC conditions • Mobile Phase A: 0.1% FA in Water • Mobile Phase B: 0.1% FA in ACN
An aliquot of 90 μL supernatant was transferred to sample plate and mixed with 60 μL water, then the plate was shaken at 800 rpm for 10 min, 15.0 μL supernatant was injected for LC-MS/MS analysis. • Calibration curve: • 1.00-3000 ng/ml, for Compound 1 in female CD-1 mouse plasma (EDTA-K2)

[2] = system: Candida glabrata; assay: MIC against yeasts; type: cell-based; settings: Nakaseomyces glabratus; 5 isolates; Table 3A

Compound | In vivo PK AUC0-inf (ng*hr/mL) ([1]; 1 mg/kg) | In vivo PK Cl ([1]; 1 mg/kg) [mL/min/kg] | In vivo PK T1/2, ([1]; 1 mg/kg) [h] | In vivo PK AUC0-inf ([1]; 5 mg/kg) [ng·h/mL] | In vivo PK Cl ([1]; 5 mg/kg) [mL/min/kg] | In vivo PK T1/2, ([1]; 5 mg/kg) [h] | MIC [2] [µM]
CC1C=CC=CC=CC=CC=CC=CC=CC(OC2OC(C)C(O)C(N)C2O)CC2OC(O)(CC(O)CC(O)C(O)CCC(O)CC(O)CC(=O)OC(C)C(C)C1O)CC(O)C2C(=O)NC(CO)CO (stereo not shown) [Compound 1] | 18785] ng*hr/mL | 0.891 | 8.37 | 79575 | 1.05 | 9.6 | 
C[C@@H]1[C@H](O)[C@@H](C)/C=C/C=C/C=C/C=C/C=C/C=C/C=C/[C@H](OC2O[C@H](C)[C@@H](O)[C@H](N)[C@@H]2O)C[C@@H]2O[C@](O)(C[C@@H](O)C[C@@H](O)[C@H](O)CC[C@@H](O)C[C@@H](O)CC(=O)O[C@H]1C)C[C@H](O)[C@H]2C(=O)O (stereo partly shown) [AmB, Amphotericin B] |  |  |  |  |  |  | 1.4 (≈ 1.29 µg/mL)

Reference: patent publication US12655173B2, “Hybrid amide derivatives of amphotericin B” (priority 2020, dated 2026)
